Laboratory results as given in patent US20240335371A1, “MAGNESIUM SULFATE AND FORSKOLIN FOR TREATMENT OF SEXUAL DISORDERS AND BENIGN PROSTATIC HYPERPLASIA” (State-of-the-Art Technologies, Inc., priority 2023, published 2024).
Like-named read-outs stand apart in the source and are kept apart here.

Experiments:
female low libido = conditions: cited from earlier work; for side effects: in vivo
ED = conditions: cited from earlier work
[1] = cited from earlier work
[2] = test system: penis or female genitalia; assay: Topical or transdermal administration of magnesium sulfate or forskolin to male and female subjects
Source text: The composition is generally applied generously to the penis and massaged thoroughly. In females, the composition may be applied to the female genitals and massaged. In various embodiments, the composition may also be applied on a penis or sex toy or suppository inserted into the vagina or ano-rectal region, or as a condom lubricant, penile lubricant, vaginal lubricant or anal lubricant.

CCCC[C@H](NC(C)=O)C(=O)N[C@H]1CC(=O)NCCCC[C@@H](C(=O)O)NC(=O)[C@H](Cc2c[nH]c3ccccc23)NC(=O)[C@H](CCCN=C(N)N)NC(=O)[C@@H](Cc2ccccc2)NC(=O)[C@H](Cc2cnc[nH]2)NC1=O [Bremelanotide]
side effects (female low libido): Nausea is a common side effect
effect on number of satisfying sexual events compared to placebo (female low libido; self-administered injection about 45 minutes before a sexual encounter): minimal effect

CCCCC[C@H](O)/C=C/[C@H]1[C@H](O)CC(=O)[C@@H]1CCCCCCC(=O)O [alprostadil]
efficacy in ED (ED; intraurethral deposition): not effective in all patients

CN1CCc2cccc3c2[C@H]1Cc1ccc(O)c(O)c1-3 [apomorphine]
efficacy in ED (ED; oral and sublingual therapies): neither compound has demonstrated efficacy across a broad range of subjects

O=c1[nH]c2ccccc2n1CCN1CCN(c2cccc(C(F)(F)F)c2)CC1 [flibanserin]
side effects (female low libido): sleepiness and fainting
effect compared to placebo (female low libido; oral pill taken daily): minimal compared to placebo

C=C[C@@]1(C)CC(=O)[C@]2(O)[C@@]3(C)[C@@H](O)CCC(C)(C)[C@@H]3[C@H](O)[C@H](OC(C)=O)[C@@]2(C)O1 [forskolin, 7beta-acetoxy-8, 13-epoxy-1a, 6β, 9a-trihydroxy-labd-14-en-11-one]
lipid solubility [1]: lipid-soluble
solubility in water ([1]; water): water soluble
systemic side effects or drug interactions ([2]; human, in vivo): no systemic side effects or drug interactions

O=[N+]([O-])OCC(CO[N+](=O)[O-])O[N+](=O)[O-] [glyceryl trinitrate (GTN), glyceryl trinitrate]
efficacy in ED and side effects (ED; patches applied to the penis): effective but produces side effects in both patient and partner

O=S(=O)([O-])[O-].[Mg+2] [magnesium sulfate]
systemic side effects or drug interactions ([2]; administered topically or by transdermal delivery): no systemic side effects or drug interactions
taste of magnesium in mouth after topical administration (increased blood levels) ([2]; topical administration): tasted magnesium in their mouth within one minute
testosterone and libido ([2]; topical or transdermal administration, males and females): increased testosterone with increased libido in both males and females lasting for several weeks
increase in penile length, size and turgidity versus control gel (KY jelly) ([2]; topical or transdermal application to the penis): significantly exceeds that obtained by topical or transdermal application of a control gel

Cc1ccc(N(CC2=NCCN2)c2cccc(O)c2)cc1 [phentolamine]
efficacy in ED (ED; oral and sublingual therapies): neither compound has demonstrated efficacy across a broad range of subjects
